Results on 20 compounds are retold here after patent publication EP4818168A1, “FUSED RING COMPOUND, PHARMACEUTICAL COMPOSITION THEREOF AND USE THEREOF” (priority 2023, dated 2025).

Read-outs that look alike come from different tables or passages of the source.

One assay deals with H82 cells. The experiment in a line: cells. The following applies: Homo sapiens. It is filed as cell-based. How it is done:
CellTiter-Glo (CTG) is a rapid cell viability test method based on ATP detection. […] Adenosine triphosphate (ATP) participates in various enzymatic reactions in organisms and is an indicator of living cell metabolism. Its content directly reflects the number of living cells and cell status. During the experiment, equal volume of CTG reagent is added to the cultured cells to measure the luminescence value. The chemiluminescent signal value is proportional to the amount of ATP, thus reflecting the number of viable cells. Therefore, cell viability can be obtained by detecting the ATP content. Compounds that affect cell viability will inhibit cell viability in a concentration-dependent manner, allowing a curve to be fitted to obtain the IC50 value.
The experimental procedure is as follows: • 11. Place the cell suspension in a 15 mL centrifuge tube, centrifuge at 1000 rpm for 5 min at room temperature, discard the supernatant, and collect the cell pellet. • 12. Resuspend the cell pellet with preheated complete cell culture medium (RPMI1640+10%FBS+1%PS), and use a Countess® automated cell counter to detect cell viability and density. […] Transfer the compound solution to a 96-well plate seeded with cells (final concentration of DMSO 0.1%), and place in a cell incubator at 37°C, 5% CO2 for 6 days. • 15. […] Protect from light during the whole process. Perform optical signal readings using a SpectraMax i3x reader. • 16. Data analysis: Remaining activity (%) = 100% * (1 - ((LumDMSO - Lummedium) - Lumsample) / (LumDMSO - LumPBS/medium)). Use GraphPad Prism 9.0 software to draw an S-shaped dose-survival rate curve and calculate the IC50 value using a nonlinear regression model.

The target in the next assay is T1, AURKA (Homo sapiens, UniProt O14965).
T1 construct: endogenous in cells; host or cells: Jurkat cells
T1 sequence (O14965 1-403): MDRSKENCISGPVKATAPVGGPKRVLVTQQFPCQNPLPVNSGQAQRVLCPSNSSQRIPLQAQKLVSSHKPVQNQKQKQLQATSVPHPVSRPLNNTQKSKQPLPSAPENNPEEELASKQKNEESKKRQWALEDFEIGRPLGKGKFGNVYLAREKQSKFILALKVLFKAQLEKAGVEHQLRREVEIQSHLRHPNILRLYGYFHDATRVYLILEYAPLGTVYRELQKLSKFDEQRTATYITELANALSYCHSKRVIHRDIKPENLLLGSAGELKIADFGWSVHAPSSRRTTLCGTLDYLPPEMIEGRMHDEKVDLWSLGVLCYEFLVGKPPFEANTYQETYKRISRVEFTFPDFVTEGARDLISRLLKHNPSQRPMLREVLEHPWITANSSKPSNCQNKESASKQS
In kind it is cell-based. To be noted: Jurkat cells, 24 h. From the text:
WB is a classical biochemical experimental method used to detect the abundance of a target protein in a sample of cells or biological tissue. It relies on specific antigen-antibody binding to detect protein signals from the sample processed by gel electrophoresis: the protein specifically binds to a primary antibody at an epitope; the primary antibody is then conjugated with a secondary antibody to amplify the signal cascade; the signal is read out by chemiluminescent or fluorescent detection. The intracellular protein content is ultimately characterized by the intensity of the optical signals. […] The DC50 value can be calculated by curve fitting of the protein WB exposure signals.
The experimental procedure is as follows: • 1. Seed Jurkat cells into a 12-well plate at 1×10^6 cells/500 µL/well. • 2. Mix the culture medium with the compound to a concentration that is twice the desired final concentration. […] Transfer the cell suspension to a centrifuge tube. Rinse the 12-well plate with PBS and then transfer the PBS from the plate to the same centrifuge tube. Centrifuge at 3000 rpm for 5 min at room temperature. Aspirate the supernatant using a vacuum pump. […] Lyse on ice for 20 min. • 4. Centrifuge the lysed sample at 13000 rpm for 20 min at 4°C. Mix the supernatant with 5× protein loading buffer. Boil at 100°C for 5 min and then cool. Store the denatured protein sample at -20°C. • 5. […] Run electrophoresis at 80 V for 20 min, and then at 120 V constant voltage for 60 min. • 6. Transfer the protein onto a nitrocellulose membrane in an ice bath at 250 mA constant current for 90 min. • 7. […] Incubate with a primary antibody overnight at 4°C. • 9. […] Incubate with a secondary antibody for 1-2 h at room temperature. • 10. […] Expose and image the membrane using a LICOR Odyssey DLx imager.

Where [1] appears, read: NCI-H82, H82 cells, 4000 cells/well, CellTiter-Glo, read-out: IC50 in H82 Cells.

The IC50 is the concentration needed to halve the response being measured. As for `O=C1CCN(c2ccc(N3CC4COCC(C3)N4CC3CN(c4ccc(Nc5ncc6c(n5)-c5ccc(Cl)cc5C(c5c(F)cccc5F)=NC6)cc4)C3)nc2)C(=O)N1` [Compound A358], the IC50 in the assay on H82 cells (setting [1]) was under 1000 nM. Besides, at AURKA (Table 2), the “Percentage of AURKA Degradation Induced by 100 nM Compound in Jurkat Cells” value (from here on “Percentage … by 100 nM Compound in Jurkat Cells”) is listed as “+++ (Degradation > 70%)” and the “Percentage of AURKA Degradation Induced by 1 µM Compound in Jurkat Cells” value (from here on “Percentage … by 1 µM Compound in Jurkat Cells”) is “+++ (Degradation > 70%)”.

On to `O=C1CCN(c2cccc(C3CCN(CCOc4cccc(Nc5ncc6c(n5)-c5ccc(Cl)cc5C(c5c(F)cccc5F)=NC6)c4)C3)c2)C(=O)N1` (stereo not drawn) [Compound A144], for which the IC50 in the assay with H82 cells (setting [1]) is under 1000 nM. Moreover, at AURKA (Table 2), the “Percentage … by 100 nM Compound in Jurkat Cells” value is “+ (Degradation ≤ 30%)” and the “Percentage … by 1 µM Compound in Jurkat Cells” value is “+ (Degradation ≤ 30%)”.

Consider `O=C1CCN(c2ccc(N3CC4(CC(N5CCN(c6ccc(Nc7ncc8c(n7)-c7ccc(Cl)cc7C(c7c(F)cccc7F)=NC8)cc6)C(=O)C5)CO4)C3)nc2)C(=O)N1` (stereo not drawn) [Compound A329], for which the IC50 in the assay on H82 cells (setting [1]) is under 1000 nM. At AURKA (Table 2), the “Percentage … by 100 nM Compound in Jurkat Cells” value is “+++ (Degradation > 70%)” and the “Percentage … by 1 µM Compound in Jurkat Cells” value was “+++ (Degradation > 70%)”.

In the case of `O=C1CCN(c2ccc(N3CCC(C(=O)N4CCN(c5ccc(Nc6ncc7c(n6)-c6ccc(Cl)cc6C(c6c(F)cccc6F)=NC7)cc5)CC4)CC3)nc2)C(=O)N1` [Compound A229], the IC50 with H82 cells (setting [1]) was under 1000 nM. At AURKA (Table 2), the “Percentage … by 100 nM Compound in Jurkat Cells” value is recorded as “+++ (Degradation > 70%)” and the “Percentage … by 1 µM Compound in Jurkat Cells” value is listed as “+++ (Degradation > 70%)”.

With `O=C1CCN(c2cccc(N3CCN(CC#Cc4ccc(Nc5ncc6c(n5)-c5ccc(Cl)cc5C(c5c(F)cccc5F)=NC6)cc4)CC3)c2)C(=O)N1` [Compound A123], on AURKA (Table 2), the “Percentage … by 100 nM Compound in Jurkat Cells” value is “+ (Degradation ≤ 30%)” and the “Percentage … by 1 µM Compound in Jurkat Cells” value is reported as “+ (Degradation ≤ 30%)”.

For `O=C1CCN(c2ccc([C@H]3C[C@@H](N4CC(NC(=O)c5ccc(Nc6ncc7c(n6)-c6ccc(Cl)cc6C(c6c(F)cccc6F)=NC7)cc5)C4)C3)nc2)C(=O)N1` [Compound A114], on AURKA (Table 2), the “Percentage … by 100 nM Compound in Jurkat Cells” value was “+++ (Degradation > 70%)” and the “Percentage … by 1 µM Compound in Jurkat Cells” value was “+++ (Degradation > 70%)”.

`CN1C(=O)CCN(c2ccc(N3CCC4(CC3)CC(NC(=O)c3ccc(Nc5ncc6c(n5)-c5ccc(Cl)cc5C(c5c(F)cccc5F)=NC6)cc3)C4)nc2)C1=O` [Compound A82]: at AURKA (Table 2), the “Percentage … by 100 nM Compound in Jurkat Cells” value was “+ (Degradation ≤ 30%)” and the “Percentage … by 1 µM Compound in Jurkat Cells” value is “+ (Degradation ≤ 30%)”.

For `O=C1CCN(c2ccc(N3CCN(CC4CN([C@H]5CC[C@@H](Nc6ncc7c(n6)-c6ccc(Cl)cc6C(c6c(F)cccc6F)=NC7)CC5)C4)CC3)nc2)C(=O)N1` [Compound A247], at AURKA (Table 2), the “Percentage … by 100 nM Compound in Jurkat Cells” value is “+ (Degradation ≤ 30%)” and the “Percentage … by 1 µM Compound in Jurkat Cells” value is recorded as “+ (Degradation ≤ 30%)”.

As for `O=C1CCN(c2ccc(C#C[C@H]3C[C@H](NC(=O)c4ccc(Nc5ncc6c(n5)-c5ccc(Cl)cc5C(c5c(F)cccc5F)=NC6)cc4)C3)cc2)C(=O)N1` [Compound A53], on AURKA (Table 1), the “Percentage … by 100 nM Compound in Jurkat Cells” value is on record as “++ (30% < Degradation ≤ 70%)” and the “Percentage … by 1 µM Compound in Jurkat Cells” value was “++ (30% < Degradation ≤ 70%)”.

For `O=C1CCN(c2ccc(N3CC(N4CC(NC(=O)c5ccc(Nc6ncc7c(n6)-c6ccc(Cl)cc6C(c6c(F)cccc6F)=NC7)cc5)C4)C3)nc2)C(=O)N1` [Compound A84], at AURKA (Table 2), the “Percentage … by 100 nM Compound in Jurkat Cells” value is “++ (30% < Degradation ≤ 70%)” and the “Percentage … by 1 µM Compound in Jurkat Cells” value is “+++ (Degradation > 70%)”.

Take `COc1cc(Nc2ncc3c(n2)-c2ccc(Cl)cc2C(c2c(F)cccc2F)=NC3)ccc1N1CC(F)(CN2CCN(c3ccc(N4CCC(=O)NC4=O)cn3)CC2)C1` [Compound A289]: at AURKA (Table 2), the “Percentage … by 100 nM Compound in Jurkat Cells” value is recorded as “+++ (Degradation > 70%)” and the “Percentage … by 1 µM Compound in Jurkat Cells” value is listed as “+++ (Degradation > 70%)”.

With `Cc1c(N2CCC(C#Cc3cccc(Nc4ncc5c(n4)-c4ccc(Cl)cc4C(c4c(F)cccc4F)=NC5)c3)CC2)cccc1N1CCC(=O)NC1=O` [Compound A161], at AURKA (Table 2), the “Percentage … by 100 nM Compound in Jurkat Cells” value is listed as “+ (Degradation ≤ 30%)” and the “Percentage … by 1 µM Compound in Jurkat Cells” value is “++ (30% < Degradation ≤ 70%)”.

`O=C1CCN(c2cccc(C#CCN3CCn4c(cnc4-c4ccc(Nc5ncc6c(n5)-c5ccc(Cl)cc5C(c5c(F)cccc5F)=NC6)cc4)C3)c2)C(=O)N1` [Compound A145]: the IC50 in the assay with H82 cells (setting [1]) was under 1000 nM.

For `O=C1CCN(c2cccc(N3CCN(CC#Cc4cccc(Nc5ncc6c(n5)-c5ccc(Cl)cc5C(c5c(F)cccc5F)=NC6)c4)CC3)c2)C(=O)N1` [Compound A98], the IC50 in the assay with H82 cells (NCI-H82, read-out: IC50 in H82 Cells) was under 1000 nM.

Consider `O=C1CCN(c2cnc(N3CCC(N4CCN(c5ccc(Nc6ncc7c(n6)-c6ccc(Cl)cc6C(c6c(F)cccc6F)=NC7)cc5)C(=O)C4)CC3)s2)C(=O)N1` [Compound A154], for which, at AURKA (Table 2), the “Percentage … by 100 nM Compound in Jurkat Cells” value is recorded as “+++ (Degradation > 70%)” and the “Percentage … by 1 µM Compound in Jurkat Cells” value was “++ (30% < Degradation ≤ 70%)”.

In the case of `CP(C)(=O)c1ccc2c(c1)C(c1c(F)cccc1F)=NCc1cnc(Nc3ccc(N4CCN(C5CCN(c6ccc(N7CCC(=O)NC7=O)cn6)CC5)CC4)cc3)nc1-2` [Compound A266], on AURKA (Table 2), the “Percentage … by 100 nM Compound in Jurkat Cells” value is “++ (30% < Degradation ≤ 70%)” and the “Percentage … by 1 µM Compound in Jurkat Cells” value is “++ (30% < Degradation ≤ 70%)”.

As to `O=C1CCN(c2ccc(N3CC(Cn4cnc(-c5ccc(Nc6ncc7c(n6)-c6ccc(Cl)cc6C(c6c(F)cccc6F)=NC7)cc5)c4)C3)nc2)C(=O)N1` [Compound A160], on AURKA (Table 2), the “Percentage … by 100 nM Compound in Jurkat Cells” value was “++ (30% < Degradation ≤ 70%)” and the “Percentage … by 1 µM Compound in Jurkat Cells” value was “++ (30% < Degradation ≤ 70%)”.

Consider `O=C1CCN(c2ccc(N3CCC4(CC3)CC(NC(=O)c3ccc(Nc5ncc6c(n5)-c5ccc(Cl)cc5C(c5c(F)cccc5F)=NC6)cc3)C4)c(F)c2)C(=O)N1` [Compound A93], for which, on AURKA (Table 2), the “Percentage … by 100 nM Compound in Jurkat Cells” value is given as “++ (30% < Degradation ≤ 70%)” and the “Percentage … by 1 µM Compound in Jurkat Cells” value is given as “+++ (Degradation > 70%)”.

As to `O=C1CCN(c2ccc(N3CCC(F)(CN4CCN(C56CC(Nc7ncc8c(n7)-c7ccc(Cl)cc7C(c7nccs7)=NC8)(C5)C6)C(=O)C4)CC3)nc2)C(=O)N1` [Compound A278], on AURKA (Table 2), the “Percentage … by 100 nM Compound in Jurkat Cells” value was “++ (30% < Degradation ≤ 70%)” and the “Percentage … by 1 µM Compound in Jurkat Cells” value is listed as “+++ (Degradation > 70%)”.

Take `O=C1CCN(c2cncc(N3CCN(C4CN(c5cccc(Nc6ncc7c(n6)-c6ccc(Cl)cc6C(c6c(F)cccc6F)=NC7)c5)C4)CC3)c2C(F)F)C(=O)N1` [Compound A193]: at AURKA (Table 2), the “Percentage … by 100 nM Compound in Jurkat Cells” value is “+ (Degradation ≤ 30%)” and the “Percentage … by 1 µM Compound in Jurkat Cells” value is “+ (Degradation ≤ 30%)”.
